According to patent publication US6737383B1, “Herbicidal oxadiazolidines” (priority 1999, dated 2004):

Columns and labels:
purple nutsedge = assay: Test B pre/postemergence purple nutsedge; type: in vivo, Cyperus rotundus
Method in brief: (§1)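 Test chemicals in a non-phytotoxic solvent mixture with surfactant were sprayed preemergence onto planted seeds and postemergence onto plants 2 to 18 cm tall (1- to 4-leaf stage). After twelve to sixteen days in a greenhouse, injury was visually rated against untreated controls from 0 (no effect) to 10 (complete control).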

bedstraw = assay: Test B pre/postemergence bedstraw; type: in vivo, Galium aparine
Method in brief: as §1

wild oat = assay: Test B pre/postemergence wild oat; type: in vivo, Avena fatua
Method in brief: as §1

blackgrass = assay: Test B pre/postemergence blackgrass; type: in vivo, Alopecurus myosuroides
Method in brief: as §1

soybean = assay: Test B pre/postemergence soybean; type: in vivo, Glycine max
Method in brief: as §1

crabgrass = assay: Test B pre/postemergence crabgrass; type: in vivo, Digitaria sanguinalis
Method in brief: as §1

pigweed = assay: Test B pre/postemergence pigweed; type: in vivo, Amaranthus retroflexus
Method in brief: as §1

morningglory = assay: Test B pre/postemergence morningglory; type: in vivo, Ipomoea hederacea
Method in brief: as §1

cocklebur = assay: Test B pre/postemergence cocklebur; type: in vivo, Xanthium strumarium
Method in brief: as §1

surinam grass = assay: Test B pre/postemergence surinam grass; type: in vivo, Brachiaria decumbens
Method in brief: as §1

rape = assay: Test B pre/postemergence rape; type: in vivo, Brassica napus
Method in brief: as §1

sugar beet = assay: Test B pre/postemergence sugar beet; type: in vivo, Beta vulgaris
Method in brief: as §1

corn = assay: Test B pre/postemergence corn; type: in vivo, Zea mays
Method in brief: as §1

velvetleaf = assay: Test B pre/postemergence velvetleaf; type: in vivo, Abutilon theophrasti
Method in brief: as §1

wheat = assay: Test B pre/postemergence wheat; type: in vivo, Triticum aestivum
Method in brief: as §1

giant foxtail = assay: Test B pre/postemergence giant foxtail; type: in vivo, Setaria faberii
Method in brief: as §1

[1] = Postemergence, Rate 62 g/ha, scale 0 to 10, 0 is no effect, 10 is complete control
[2] = Postemergence, Rate 125 g/ha, scale of 0 to 10 where 0 is no effect and 10 is complete control
[3] = Preemergence, Rate 125 g/ha, scale of 0 to 10 where 0 is no effect and 10 is complete control
[4] = Preemergence, Rate 250 g/ha, scale 0 (no effect) to 10 (complete control)
[5] = Rate 62 g/ha, Preemergence, scale 0 to 10
[6] = Rate 250 g/ha, Postemergence, scale 0 to 10, 0 is no effect, 10 is complete control
[7] = Rate 500 g/ha, Postemergence, scale 0 to 10, 0 is no effect, 10 is complete control
[8] = Rate 500 g/ha, Preemergence, scale 0 to 10 (0 no effect, 10 complete control)

## CC(C)N(C(=O)n1oc(=O)n(CCCCl)c1=O)c1ccc(Cl)cc1 [Compound 749]
Purple nutsedge; [1]
  Plant response rating, Nutsedge: 0
Purple nutsedge; [2]
  Nutsedge plant response rating: 0
Purple nutsedge; [3]
  Plant response rating, Nutsedge: 0
Purple nutsedge; [4]
  Nutsedge plant response rating: 0
Purple nutsedge; [5]
  Nutsedge plant response rating: 0
Purple nutsedge; [6]
  Nutsedge plant response rating: 0
Purple nutsedge; [7]
  Nutsedge plant response rating: 0
bedstraw; [1]
  Plant response rating, Bedstraw: 3
bedstraw; [3]
  Plant response rating, Bedstraw: 0
bedstraw; [4]
  Bedstraw plant response rating: 0
bedstraw; [5]
  Bedstraw plant response rating: 0
bedstraw; [6]
  Bedstraw plant response rating: 3
bedstraw; [8]
  Bedstraw plant response rating: 4
Wild oat; [1]
  Plant response rating, Wild oats: 0
Wild oat; [2]
  Wild oats plant response rating: 0
Wild oat; [3]
  Plant response rating, Wild oats: 0
Wild oat; [4]
  Wild oats plant response rating: 5
Wild oat; [5]
  Wild oats plant response rating: 0
Wild oat; [6]
  Wild oats plant response rating: 0
Wild oat; [7]
  Wild oats plant response rating: 2
Wild oat; [8]
  Wild oats plant response rating: 8
blackgrass; [1]
  Plant response rating, Blackgrass: 5
blackgrass; [2]
  Blackgrass plant response rating: 5
blackgrass; [3]
  Plant response rating, Blackgrass: 2
blackgrass; [4]
  Blackgrass plant response rating: 6
blackgrass; [5]
  Blackgrass plant response rating: 0
blackgrass; [6]
  Blackgrass plant response rating: 6
blackgrass; [7]
  Blackgrass plant response rating: 6
blackgrass; [8]
  Blackgrass plant response rating: 9
soybean; [1]
  Plant response rating, Soybean: 3
soybean; [2]
  Soybean plant response rating: 4
soybean; [3]
  Plant response rating, Soybean: 0
soybean; [4]
  Soybean plant response rating: 2
soybean; [5]
  Soybean plant response rating: 0
soybean; [6]
  Soybean plant response rating: 5
soybean; [7]
  Soybean plant response rating: 5
soybean; [8]
  Soybean plant response rating: 3
crabgrass; [1]
  Plant response rating, Crabgrass: 4
crabgrass; [2]
  Crabgrass plant response rating: 8
crabgrass; [3]
  Plant response rating, Crabgrass: 10
crabgrass; [4]
  Crabgrass plant response rating: 10
crabgrass; [5]
  Crabgrass plant response rating: 9
crabgrass; [6]
  Crabgrass plant response rating: 9
crabgrass; [7]
  Crabgrass plant response rating: 9
crabgrass; [8]
  Crabgrass plant response rating: 10
pigweed; [1]
  Plant response rating, Redroot pigweed: 4
pigweed; [2]
  Redroot pigweed plant response rating: 4
pigweed; [3]
  Plant response rating, Redroot pigweed: 5
pigweed; [4]
  Redroot pigweed plant response rating: 7
pigweed; [5]
  Redroot pigweed plant response rating: 0
pigweed; [6]
  Redroot pigweed plant response rating: 4
pigweed; [7]
  Redroot pigweed plant response rating: 7
pigweed; [8]
  Redroot pigweed plant response rating: 9
morningglory; [1]
  Plant response rating, Morningglory: 2
morningglory; [2]
  Morningglory plant response rating: 3
morningglory; [3]
  Plant response rating, Morningglory: 0
morningglory; [4]
  Morningglory plant response rating: 0
morningglory; [5]
  Morningglory plant response rating: 0
morningglory; [6]
  Morningglory plant response rating: 5
morningglory; [7]
  Morningglory plant response rating: 5
morningglory; [8]
  Morningglory plant response rating: 0
cocklebur; [1]
  Plant response rating, Cocklebur: 0
cocklebur; [2]
  Cocklebur plant response rating: 2
cocklebur; [3]
  Plant response rating, Cocklebur: 0
cocklebur; [4]
  Cocklebur plant response rating: 0
cocklebur; [6]
  Cocklebur plant response rating: 4
cocklebur; [7]
  Cocklebur plant response rating: 4
cocklebur; [8]
  Cocklebur plant response rating: 0
Surinam grass; [1]
  Plant response rating, B. signalgrass: 2
Surinam grass; [2]
  B. signalgrass plant response rating: 2
Surinam grass; Preemergence, Rate 62 g/ha, scale of 0 to 10 where 0 is no effect and 10 is complete control
  B. signalgrass plant response rating: 0
Surinam grass; [3]
  Plant response rating, B. signalgrass: 2
Surinam grass; [4]
  B. signalgrass plant response rating: 8
Surinam grass; [6]
  B. signalgrass plant response rating: 3
Surinam grass; [7]
  B. signalgrass plant response rating: 3
Surinam grass; [8]
  B. signalgrass plant response rating: 10
rape; [1]
  Plant response rating, Rape: 2
rape; [2]
  Rape plant response rating: 2
rape; [3]
  Plant response rating, Rape: 0
rape; [4]
  Rape plant response rating: 0
rape; [5]
  Rape plant response rating: 0
rape; [6]
  Rape plant response rating: 6
rape; [7]
  Rape plant response rating: 6
rape; [8]
  Rape plant response rating: 5
Sugar beet; [1]
  Plant response rating, Sugarbeets: 1
Sugar beet; [2]
  Sugarbeets plant response rating: 3
Sugar beet; [3]
  Plant response rating, Sugarbeets: 2
Sugar beet; [4]
  Sugarbeets plant response rating: 6
Sugar beet; [5]
  Sugarbeets plant response rating: 0
Sugar beet; [6]
  Sugarbeets plant response rating: 4
Sugar beet; [7]
  Sugarbeets plant response rating: 4
Sugar beet; [8]
  Sugarbeets plant response rating: 7
corn; [1]
  Plant response rating, Corn: 0
corn; [2]
  Corn plant response rating: 0
corn; [3]
  Plant response rating, Corn: 0
corn; [4]
  Corn plant response rating: 0
corn; [5]
  Corn plant response rating: 0
corn; [6]
  Corn plant response rating: 0
corn; [7]
  Corn plant response rating: 1
corn; [8]
  Corn plant response rating: 0
velvetleaf; [1]
  Plant response rating, Velvetleaf: 0
velvetleaf; [2]
  Velvetleaf plant response rating: 3
velvetleaf; [3]
  Plant response rating, Velvetleaf: 0
velvetleaf; [4]
  Velvetleaf plant response rating: 0
velvetleaf; [5]
  Velvetleaf plant response rating: 0
velvetleaf; [6]
  Velvetleaf plant response rating: 3
velvetleaf; [7]
  Velvetleaf plant response rating: 3
velvetleaf; [8]
  Velvetleaf plant response rating: 2
wheat; [1]
  Plant response rating, Wheat: 0
wheat; [2]
  Wheat plant response rating: 0
wheat; [3]
  Plant response rating, Wheat: 0
wheat; [4]
  Wheat plant response rating: 1
wheat; [5]
  Wheat plant response rating: 0
wheat; [6]
  Wheat plant response rating: 0
wheat; [7]
  Wheat plant response rating: 0
wheat; [8]
  Wheat plant response rating: 1
Giant foxtail; [1]
  Plant response rating, Giant foxtail: 3
Giant foxtail; [2]
  Giant foxtail plant response rating: 5
Giant foxtail; [3]
  Plant response rating, Giant foxtail: 10
Giant foxtail; [4]
  Giant foxtail plant response rating: 10
Giant foxtail; [5]
  Giant foxtail plant response rating: 9
Giant foxtail; [6]
  Giant foxtail plant response rating: 9
Giant foxtail; [7]
  Giant foxtail plant response rating: 9
Giant foxtail; [8]
  Giant foxtail plant response rating: 10
